Here are results for eight compounds from patent US4016158A, “Cephalosporin derivatives” (Roussel-UCLAF, priority 1971, dated 1977).

For one data set, the system named is Pseudomonas. The data set can be described thus: MIC, diffusion method in gelose medium at pH 7 (Table I). It counts as cell-based. The settings on record: read-out: minimum concentration of inhibition. Here is the method:
(§1) The antibiotic activity was determined by the diffusion method in a gelose medium at a pH of 7. The following Table expresses the minimum concentration of inhibition in mcg/ml (CMl) for the products against different microbial strains.

The subject of another data set is Strept. Fecalis 5432. The data set is described as above. It counts as cell-based. Here is the method:
as §1

In the next data set the test system is Escher. Coli UC 1020. Described as above. It counts as cell-based. Particulars: Escherichia coli. Here is the method:
as §1

Data set [1] has as its system Strept. hemoly. Todd Hewitt. The description is as above. It counts as cell-based. Here is the method:
as §1

In the next data set the test system is Escher. Coli UC 1261. Described as above. The class given is cell-based. The settings on record: Escherichia coli. Here is the method:
as §1

A further data set deals with Bac. Subt. Described as above. The class given is cell-based. Here is the method:
as §1

In a further data set the test system is Staph. U.C. 1128 P(-). Described as above. It counts as cell-based. Particulars: Staph. UC 1128, penicillin resistant, read-out: minimum concentration of inhibition. Here is the method:
as §1

For data set [2], the system named is Staph. aureus oxford U.C. 1061 P(+). The description is as above. It counts as cell-based. Particulars: Staphylococcus aureus. Here is the method: as §1
A further data set can be described thus: solubility. The class given is physicochemical.
Data set [3] concerns Staphylococcus aureus 9482. The experiment in a line: MIC (Table II). The class given is cell-based. Particulars: read-out: minimum inhibition concentration. Here is the method:
as §1
(§2) Using the same procedure as in Table I, the minimum inhibition concentration in mcg/ml was determined against different microbial strains with L(-) cis 7-[D(-)-α-aminophenylacetamido]-3-isopropyl-3-cepheme-4-carboxylic acid (product A) of Example 9.

Data set [4] has as its system Staphylococcus aureus 9373. The data set can be described thus: MIC (Table II). The settings on record: read-out: minimum inhibition concentration. The class given is cell-based. Here is the method: as §1, §2
The subject of data set [5] is Staphylococcus aureus A8P. The experiment in a line: MIC (Table II). It counts as cell-based. The settings on record: read-out: minimum inhibition concentration. Here is the method:
as §1, §2

Data set [6] deals with Staphylococcus aureus 4546. The data set can be described thus: MIC (Table II). The settings on record: read-out: minimum inhibition concentration. It counts as cell-based. Here is the method:
as §1, §2

Data set [7] relates to Staphylococcus aureus 889. The data set can be described thus: MIC (Table II). It counts as cell-based. The settings on record: read-out: minimum inhibition concentration. Here is the method: as §1, §2
Data set [8] deals with Staphylococcus aureus 9729. The data set can be described thus: MIC (Table II). The settings on record: read-out: minimum inhibition concentration. The class given is cell-based. Here is the method:
as §1, §2

The subject of data set [9] is gram positive bacteria such as staphylococci and streptococci. The data set can be described thus: antibacterial activity, statement. Particulars: particularly penicillin resistant staphylococci.
Data set [10] deals with certain gram negative bacteria, particularly coliform bacteria. The data set can be described thus: antibacterial activity, statement.
Where [11] appears, read: Strept. Fecalis 5432, pH 7, read-out: minimum concentration of inhibition.
Where [12] appears, read: UC1020, Escher. Coli UC 1020, pH 7, read-out: minimum concentration of inhibition.
Where [13] appears, read: Strept. hemoly. Todd Hewitt, pH 7, read-out: minimum concentration of inhibition.
Setting [14] is: UC1261, Escher. Coli UC 1261, pH 7, read-out: minimum concentration of inhibition.
The mark [15] stands for this setting: Bac. Subt., pH 7, read-out: minimum concentration of inhibition.
The mark [16] stands for this setting: UC1061, Staph. aureus oxford UC 1061, penicillin sensitive, pH 7, read-out: minimum concentration of inhibition.
[17] abbreviates: pH 7, read-out: minimum concentration of inhibition.

Each structure is given as a SMILES string. ≈ marks a conversion by molar mass, not a printed value. Where two headings read alike, the source gives them in different places.

Consider `CC(C)C1=C(C(=O)O)N2C(=O)[C@@H](NC(=O)Cc3ccc([N+](=O)[O-])cc3)[C@H]2SC1` (relative stereo) [Example 6, DL cis 7-p-nitrophenylacetamido-3-isopropyl-3-cepheme-4-carboxylic acid], for which the MIC is more than 200 µg/mL with Pseudomonas; more than 40 µg/mL in the data set on Strept. Fecalis 5432 (setting [11]); more than 200 µg/mL with Escher. Coli UC 1020 (setting [12]); 5 µg/mL (≈ 12.3 µM) in data set [1] (setting [13]); more than 200 µg/mL with Escher. Coli UC 1261 (setting [14]); 0.2 µg/mL (≈ 0.493 µM) with Bac. Subt. (setting [15]). The MIC was determined as 2 µg/mL (≈ 4.93 µM) in the data set on Staph. U.C. 1128 P(-) and 0.4 µg/mL (≈ 0.987 µM) in data set [2] (setting [16]). Besides, the solubility in ethanol result in the data set “solubility” is on record as “slightly soluble”. In addition, the solubility in water entry in “solubility” is “insoluble”.

Regarding `CC(C)C1=C(C(=O)O)N2C(=O)[C@@H](NC(=O)Cc3ccc(N)cc3)[C@H]2SC1` (relative stereo) [Example 7, DL cis 7-p-aminophenylacetamido-3-isopropyl-3-cepheme-4-carboxylic acid], the MIC in the data set with Pseudomonas was more than 200 µg/mL; in the data set on Strept. Fecalis 5432 (setting [11]), more than 40 µg/mL; in the data set with Escher. Coli UC 1020 (setting [12]), more than 200 µg/mL; in data set [1] (setting [13]), 10 µg/mL (≈ 26.6 µM); with Escher. Coli UC 1261 (setting [14]), more than 200 µg/mL; in the data set with Bac. Subt. (setting [15]) it was 0.05 µg/mL (≈ 0.133 µM). Besides, the MIC in data set [2] (setting [16]) is 2 µg/mL (≈ 5.33 µM). Further, the solubility in chloroform entry in “solubility” (chloroform) was “slightly soluble”. Also, the solubility in ethanol result in “solubility” was “slightly soluble”. The solubility in ether entry in “solubility” is listed as “insoluble”. For the same compound, the solubility in water entry in “solubility” is “slightly soluble”.

`CC(C)C1=C(C(=O)O)N2C(=O)[C@@H](NC(=O)Cc3cccs3)[C@H]2SC1` (relative stereo) [Example 8, DL cis 7-(2'-thienyl)-acetamido-3-isopropyl-3-cepheme-4-carboxylic acid]: the MIC in the data set on Pseudomonas is more than 200 µg/mL; in the data set on Strept. Fecalis 5432 (setting [11]), more than 40 µg/mL; in the data set with Escher. Coli UC 1020 (setting [12]), more than 200 µg/mL; in data set [1] (setting [13]), 10 µg/mL (≈ 27.3 µM); in the data set on Escher. Coli UC 1261 (setting [14]), more than 200 µg/mL; with Bac. Subt. (setting [15]) it was 0.4 µg/mL (≈ 1.09 µM). The values for the MIC (in the data set with Staph. U.C. 1128 P(-); in data set [2] (setting [16])) were 5 µg/mL (≈ 13.6 µM) and 2 µg/mL (≈ 5.46 µM), respectively. In addition, the solubility in ethanol result in the data set “solubility” was “slightly soluble”. Also, the solubility in methanol result in the data set “solubility” (methanol) is recorded as “soluble”. For the same compound, the solubility in water entry in “solubility” was “insoluble”.

`CC1=C(C(=O)O)N2C(=O)[C@@H](NC(=O)[C@H](N)c3ccccc3)[C@H]2SC1` [Cephalexin, reference compound]: the MIC in the data set on Strept. Fecalis 5432 (setting [17]) was 60 µg/mL (≈ 173 µM); with Escher. Coli UC 1020 (UC1020, pH 7, read-out: minimum concentration of inhibition) it was 20 µg/mL (≈ 57.6 µM); in data set [1] (setting [17]), 10 µg/mL (≈ 28.8 µM); in the data set with Escher. Coli UC 1261 (UC1261, pH 7, read-out: minimum concentration of inhibition) it was 20 µg/mL (≈ 57.6 µM); in the data set with Bac. Subt. (setting [17]) it was 0.2 µg/mL (≈ 0.576 µM); with Staph. U.C. 1128 P(-), 10 µg/mL (≈ 28.8 µM). For the same compound, the MIC stood at 2 µg/mL (≈ 5.76 µM) in data set [2] (UC1061, pH 7, read-out: minimum concentration of inhibition); 1 µg/mL (≈ 2.88 µM) in data set [3] (Staphylococcus aureus, 9482, 24 h); 1 µg/mL (≈ 2.88 µM) in [3] (Staphylococcus aureus, 9482, 48 h); 2 µg/mL (≈ 5.76 µM) in [4] (Staphylococcus aureus, 9373, 24 h); 3 µg/mL (≈ 8.64 µM) in data set [4] (Staphylococcus aureus, 9373, 48 h); 2 µg/mL (≈ 5.76 µM) in [5] (24 h). The MIC is 5 µg/mL (≈ 14.4 µM) in data set [5] (48 h); 1 µg/mL (≈ 2.88 µM) in data set [6] (Staphylococcus aureus, 4546, 24 h); 3 µg/mL (≈ 8.64 µM) in [6] (Staphylococcus aureus, 4546, 48 h); 5 µg/mL (≈ 14.4 µM) in [7] (Staphylococcus aureus, 889, 24 h); 10 µg/mL (≈ 28.8 µM) in [7] (Staphylococcus aureus, 889, 48 h); 2 µg/mL (≈ 5.76 µM) in [8] (Staphylococcus aureus, 9729, 24 h). Further, the MIC in [8] (Staphylococcus aureus, 9729, 48 h) worked out at 3 µg/mL (≈ 8.64 µM).

Turning to `N[C@@H](C(=O)N[C@@H]1C(=O)N2C(C(=O)O)=C(C3CCCC3)CS[C@H]12)c1ccccc1` [Example 10, L(+) 6R, 7R 7-[R(-)-α-aminophenylacetamido]-3-cyclopentyl-3-cepheme-4-carboxylicacid], the MIC was 20 µg/mL (≈ 49.8 µM) with Strept. Fecalis 5432 (setting [11]); 10 µg/mL (≈ 24.9 µM) in [1] (setting [13]); 0.05 µg/mL (≈ 0.125 µM) in the data set on Bac. Subt. (setting [15]); 1 µg/mL (≈ 2.49 µM) in the data set on Staph. U.C. 1128 P(-); 0.4 µg/mL (≈ 0.996 µM) in [2] (setting [16]). In addition, in data set [9], the “activity against gram positive bacteria” value is given as “active”. For the same compound, in data set [10], the “activity against certain gram negative bacteria” value was “active”. For the same compound, the solubility in ethanol result in the data set “solubility” is reported as “slightly soluble”. The solubility in ether entry in the data set “solubility” is given as “insoluble”. In addition, the solubility in water entry in “solubility” is on record as “slightly soluble”.

With `O=C(Cc1ccc([N+](=O)[O-])cc1)NC1C(=O)N2C(C(=O)O)=C(C3CCCC3)CSC12` (stereo not drawn) [Example 11, DL cis 7-p-nitrophenylacetamido-3-cyclopentyl-3-cepheme-4-carboxylic acid], the MIC with Strept. Fecalis 5432 (setting [11]) is more than 40 µg/mL; in [1] (setting [13]), more than 40 µg/mL; with Bac. Subt. (setting [15]) it was 0.1 µg/mL (≈ 0.232 µM); with Staph. U.C. 1128 P(-), 0.4 µg/mL (≈ 0.927 µM); in data set [2] (setting [16]), 0.2 µg/mL (≈ 0.464 µM). Moreover, the solubility in ethanol result in “solubility” is given as “slightly soluble”. Moreover, the solubility in ether entry in the data set “solubility” was “insoluble”. Further, in the data set “solubility”, the solubility in water result is listed as “insoluble”.

Regarding `Nc1ccc(CC(=O)NC2C(=O)N3C(C(=O)O)=C(C4CCCC4)CSC23)cc1` (stereo not drawn) [Example 12, DL cis 7-p-aminophenylacetamido-3-cyclopentyl-3-cepheme-4-carboxylic acid], in the data set “solubility”, the solubility in ethanol entry is given as “soluble”, the solubility in ether entry was “insoluble” and the solubility in water result is “slightly soluble”.

For `O=C(Cc1cccs1)NC1C(=O)N2C(C(=O)O)=C(C3CCCC3)CSC12` (stereo not drawn) [Example 13, DL cis 7-(2'-thienyl)-acetamido-3-cyclopentyl-3-cepheme-4-carboxylic acid], the MIC with Strept. Fecalis 5432 (setting [11]) was 20 µg/mL (≈ 51 µM); in data set [1] (setting [13]), more than 40 µg/mL; in the data set with Bac. Subt. (setting [15]), 1 µg/mL (≈ 2.55 µM); in data set [2] (setting [16]), 1 µg/mL (≈ 2.55 µM). Besides, in “solubility”, the solubility in ether result is “insoluble”. The solubility in water result in “solubility” is recorded as “slightly soluble”.
